Laboratory results published in ChEMBL document CHEMBL4330112, “Monodisperse oligoethylene glycols modified Camptothecin, 10-Hydroxycamptothecin and SN38 prodrugs” (Bioorg Med Chem Lett, 2019).
≈ marks a conversion by molar mass, not a printed value.

Assays:
HepG2 = assay: Cytotoxicity against human HepG2 cells after 72 hrs by MTT assay; type: functional, cell-based; conditions: HepG2, 72 h
MCF7 = assay: Cytotoxicity against human MCF7 cells after 72 hrs by MTT assay; type: functional, cell-based; conditions: MCF7, 72 h
[1] = Solubility of the compound in phosphate buffered saline by UV-spectroscopic analysis; type: physicochemical
[2] = Prodrug conversion in Sprague-Dawley rat plasma assessed as SN38 formation at 4 mg measured within 2 hrs by UV-based RP-HPLC analysis; type: ADME, cell-free
[3] = Prodrug conversion in Sprague-Dawley rat plasma assessed as 10-hydroxycamptothecin formation at 4 mg measured within 2 hrs by UV-based RP-HPLC analysis; type: ADME, cell-free
[4] = phosphate buffered saline, read-out: solubility

SMILES	IC50 (HepG2)	IC50 (MCF7)	solubility [1, 4]	solubility ([1]; buffer)	Drug metabolism [2]	Drug metabolism [3]
CC[C@@]1(O)C(=O)OCc2c1cc1n(c2=O)Cc2cc3cc(OC(=O)OCCOCCOCCOCCOCCOCCOCCOCCOCCOCCOCCOCCOCCOCCOCCOCCOCCOCCOCCOCCOC)ccc3nc2-1	3.62 µM	6.88 µM				
CC[C@@]1(O)C(=O)OCc2c1cc1n(c2=O)Cc2cc3cc(OC(=O)OCCOCCOCCOCCOCCOCCOCCOCCOCCOCCOCCOC)ccc3nc2-1	2.51 µM	4.64 µM				
CC[C@@]1(OC(=O)OCCOCCOCCOCCOCCOCCOCCOCCOCCOCCOCCOCCOCCOCCOCCOC)C(=O)OCc2c1cc1n(c2=O)Cc2cc3ccccc3nc2-1	7.07 µM	8.53 µM	114 mg/mL (≈ 106 mM)			
CC[C@@]1(O)C(=O)OCc2c1cc1n(c2=O)Cc2cc3cc(OCCOCCOCCOCCOCCOCCOCCOCCOCCOCCOCCOCCO)ccc3nc2-1	> 100 µM	> 100 µM				
CCc1c2c(nc3ccc(OC(=O)OCCOCCOCCOCCOCCOCCOCCOCCOCCOCCOCCOCCOCCOCCOCCOCCOCCOCCOCCOCCOC)cc13)-c1cc3c(c(=O)n1C2)COC(=O)[C@]3(O)CC	1.98 µM	3.08 µM				
CC[C@@]1(O)C(=O)OCc2c1cc1n(c2=O)Cc2cc3cc(OC(=O)OCCOCCOCCOCCOCCOCCOCCOCCOCCOCCOC)ccc3nc2-1	2.08 µM	5.44 µM	142 mg/mL (≈ 165 mM)			
CC[C@@]1(O)C(=O)OCc2c1cc1n(c2=O)Cc2cc3cc(OC(=O)OCCOCCOCCOCCOCCOCCOCCOCCOCCOCCOCCOCCOCCOCCOCCOCCOC)ccc3nc2-1	2.75 µM	6.16 µM				
CC[C@@]1(O)C(=O)OCc2c1cc1n(c2=O)Cc2cc3cc(OCCOCCOCCOCCOCCOCCOCCOCCO)ccc3nc2-1	> 100 µM	> 100 µM	249 mg/mL (≈ 347 mM)			
CC[C@@]1(O)C(=O)OCc2c1cc1n(c2=O)Cc2cc3cc(OC(=O)OCCOCCOCCOCCOCCOCCOCCOCCOCCOCCOCCOCCOCCOCCOC)ccc3nc2-1	1.79 µM	5.61 µM				
CC[C@@]1(OC(=O)OCCOCCOCCOCCOCCOCCOCCOCCOCCOCCOCCOCCOCCOCCOCCOCCOCCOCCOCCOCCOC)C(=O)OCc2c1cc1n(c2=O)Cc2cc3ccccc3nc2-1	6.87 µM	8.09 µM	183 mg/mL (≈ 142 mM)			
CC[C@@]1(OC(=O)OCCOCCOCCOCCOCCOCCOCCOCCOCCOCCOCCOCCOCCOCCOCCOCCOC)C(=O)OCc2c1cc1n(c2=O)Cc2cc3ccccc3nc2-1	4.72 µM	6.17 µM	136 mg/mL (≈ 122 mM)			
CC[C@@]1(OC(=O)OCCOCCOCCOCCOCCOCCOCCOCCOC)C(=O)OCc2c1cc1n(c2=O)Cc2cc3ccccc3nc2-1	5.47 µM	7.42 µM	0.38 mg/mL (≈ 0.501 mM)			
CC[C@@]1(O)C(=O)OCc2c1cc1n(c2=O)Cc2cc3cc(OCCOCCOCCOCCO)ccc3nc2-1	41.8 µM	74.6 µM	0.95 mg/mL (≈ 1.76 mM)			
CC[C@@]1(O)C(=O)OCc2c1cc1n(c2=O)Cc2cc3cc(OC(=O)OCCOCCOCCOCCOCCOCCOCCOCCOCCOCCOCCOCCOCCOCCOCCOCCOCCOCCOCCOCCOCCOCCOCCOCCOC)ccc3nc2-1	2.69 µM	6.76 µM				
CC[C@@]1(O)C(=O)OCc2c1cc1n(c2=O)Cc2cc3cc(OCCOCCOCCOCCOCCOCCOCCOCCOCCO)ccc3nc2-1	> 100 µM	> 100 µM				
CC[C@@]1(OC(=O)OCCOCCOCCOCCOCCOCCOCCOCCOCCOCCOC)C(=O)OCc2c1cc1n(c2=O)Cc2cc3ccccc3nc2-1	4.48 µM	10.3 µM	0.52 mg/mL (≈ 0.614 mM)			
CC[C@@]1(O)C(=O)OCc2c1cc1n(c2=O)Cc2cc3cc(OC(=O)OCCOCCOCCOCCOCCOCCOCCOCCOCCOCCOCCOCCOCCOCCOCCOC)ccc3nc2-1	1.71 µM	4.47 µM				

SMILES	IC50 (HepG2)	IC50 (MCF7)	solubility [1, 4]	solubility ([1]; buffer)	Drug metabolism [2]	Drug metabolism [3]
CC[C@@]1(O)C(=O)OCc2c1cc1n(c2=O)Cc2cc3ccccc3nc2-1 [CAMPTOTHECIN]	0.66 µM	0.68 µM	0.00069 mg/mL (≈ 0.00198 mM)			
CC[C@@]1(OC(=O)OCCOCCOCCOCCOCCOCCOCCOCCOCCOCCOCCOCCOCCOCCOCCOCCOCCOCCOCCOCCOCCOCCOCCOCCOC)C(=O)OCc2c1cc1n(c2=O)Cc2cc3ccccc3nc2-1	6.17 µM	8.62 µM	272 mg/mL (≈ 186 mM)			
CCc1c2c(nc3ccc(O)cc13)-c1cc3c(c(=O)n1C2)COC(=O)[C@]3(O)CC [7-ETHYL-10-HYDROXYCAMPTOTHECIN]	0.48 µM	1.25 µM	0.00087 mg/mL (≈ 0.00222 mM)			
CC[C@@]1(O)C(=O)OCc2c1cc1n(c2=O)Cc2cc3cc(OCCOCCOCCOCCOCCOCCOCCOCCOCCOCCOCCO)ccc3nc2-1	> 100 µM	> 100 µM				
CC[C@@]1(OC(=O)OCCOCCOCCOCCOCCOCCOCCOCCOCCOCCOCCOC)C(=O)OCc2c1cc1n(c2=O)Cc2cc3ccccc3nc2-1	4.78 µM	8.48 µM	79.5 mg/mL (≈ 89.2 mM)			
CC[C@@]1(O)C(=O)OCc2c1cc1n(c2=O)Cc2cc3cc(OCCOCCOCCOCCOCCOCCOCCO)ccc3nc2-1	62.4 µM	> 100 µM	73.3 mg/mL (≈ 109 mM)			
CC[C@@]1(O)C(=O)OCc2c1cc1n(c2=O)Cc2cc3cc(OCCOCCOCCOCCOCCO)ccc3nc2-1	70.3 µM	95.8 µM	6.34 mg/mL (≈ 10.8 mM)			
CC[C@@]1(O)C(=O)OCc2c1cc1n(c2=O)Cc2cc3cc(O)ccc3nc2-1 [HYDROXYCAMPTOTHECIN]	1.47 µM	3.58 µM		0.00094 mg/mL (≈ 0.00258 mM)		
CC[C@@]1(OC(=O)OCCOCCOCCOCCOCCOCCOCCOCCOCCOCCOCCOCCOCCOCCOC)C(=O)OCc2c1cc1n(c2=O)Cc2cc3ccccc3nc2-1	5.15 µM	7.43 µM	94.1 mg/mL (≈ 91.9 mM)			
CCc1c2c(nc3ccc(OC(=O)OCCOCCOCCOCCOCCOCCOCCOCCOCCOCCOCCOCCOCCOCCOCCOC)cc13)-c1cc3c(c(=O)n1C2)COC(=O)[C@]3(O)CC	2.31 µM	4.72 µM			Metabolite_Detected	Metabolite_Detected
CC[C@@]1(O)C(=O)OCc2c1cc1n(c2=O)Cc2cc3cc(OC(=O)OCCOCCOCCOCCOCCOCCOCCOCCOCCOCCOCCOCCOCCOCCOCCOCCOCCOCCOCCOC)ccc3nc2-1	2.2 µM	6.09 µM				
CC[C@@]1(O)C(=O)OCc2c1cc1n(c2=O)Cc2cc3cc(OCCOCCOCCOCCOCCOCCO)ccc3nc2-1	50 µM	> 100 µM	11 mg/mL (≈ 17.4 mM)			
CC[C@@]1(O)C(=O)OCc2c1cc1n(c2=O)Cc2cc3cc(OCCOCCOCCOCCOCCOCCOCCOCCOCCOCCO)ccc3nc2-1	> 100 µM	> 100 µM				
CC[C@@]1(OC(=O)OCCOCCOCCOCCOCCOCCOCCOCCOCCOCCOCCOCCOC)C(=O)OCc2c1cc1n(c2=O)Cc2cc3ccccc3nc2-1	5.97 µM	3.36 µM	82.8 mg/mL (≈ 88.6 mM)			
CC[C@@]1(OC(=O)OCCOCCOCCOCCOCCOCCOCCOCCOCCOCCOCCOCCOCCOCCOCCOCCOCCOCCOCCOC)C(=O)OCc2c1cc1n(c2=O)Cc2cc3ccccc3nc2-1	3.61 µM	7.43 µM	143 mg/mL (≈ 115 mM)			
CC[C@@]1(O)C(=O)OCc2c1cc1n(c2=O)Cc2cc3cc(OC(=O)OCCOCCOCCOCCOCCOCCOCCOCCOCCOCCOCCOCCOC)ccc3nc2-1	2.21 µM	2.85 µM			Metabolite_Detected	Metabolite_Detected
CC[C@@]1(O)C(=O)OCc2c1cc1n(c2=O)Cc2cc3cc(OC(=O)OCCOCCOCCOCCOCCOCCOCCOCCOC)ccc3nc2-1	3.06 µM	5.39 µM	85.1 mg/mL (≈ 110 mM)			
